From PubChem BioAssay AID2060897 (Molecular Pharmacology Branch, DTP, NCI, 2025)
Each block holds one compound with its values, some of them ahead of it.

System: 966289-007-R4-J1-PDC complex spheroid viability
Assay: Anticancer human tumor 966289-007-R4-J1-PDC patient-derived pancreatic adenocarcinoma cell line growth inhibition [RAS]
Settings: for viability, T/C: stronger effect = lower value
Outline: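 Agents were tested in combination matrices in half-log decrements from a top concentration at or near clinical Cmax (10 microM if undetermined). Targets were multi-cell spheroids of tumour lines plus HUVEC and MSC stromal cells.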

[1] = curve of first compound, second compound 0.000949 µM
[2] = curve of first compound, second compound 0.003 µM
[3] = curve of first compound, second compound 0.00949 µM
[4] = curve of first compound, second compound 0.03 µM
[5] = curve of first compound, second compound 0.0949 µM
[6] = curve of first compound, second compound 0.3 µM
[7] = second compound 0.000949 µM, first compound 0.000949 µM
[8] = second compound 0.000949 µM, first compound 0.003 µM
[9] = second compound 0.000949 µM, first compound 0.00949 µM
[10] = second compound 0.000949 µM, first compound 0.03 µM
[11] = second compound 0.000949 µM, first compound 0.0949 µM
[12] = second compound 0.000949 µM, first compound 0.3 µM
[13] = second compound 0.003 µM, first compound 0.000949 µM
[14] = second compound 0.003 µM, first compound 0.003 µM
[15] = second compound 0.003 µM, first compound 0.00949 µM
[16] = second compound 0.003 µM, first compound 0.03 µM
[17] = second compound 0.003 µM, first compound 0.0949 µM
[18] = second compound 0.003 µM, first compound 0.3 µM
[19] = second compound 0.00949 µM, first compound 0.000949 µM
[20] = second compound 0.00949 µM, first compound 0.003 µM
[21] = second compound 0.00949 µM, first compound 0.00949 µM
[22] = second compound 0.00949 µM, first compound 0.03 µM
[23] = second compound 0.00949 µM, first compound 0.0949 µM
[24] = second compound 0.00949 µM, first compound 0.3 µM
[25] = second compound 0.03 µM, first compound 0.000949 µM
[26] = second compound 0.03 µM, first compound 0.003 µM
[27] = second compound 0.03 µM, first compound 0.00949 µM
[28] = second compound 0.03 µM, first compound 0.03 µM
[29] = second compound 0.03 µM, first compound 0.0949 µM
[30] = second compound 0.03 µM, first compound 0.3 µM
[31] = second compound 0.0949 µM, first compound 0.000949 µM
[32] = second compound 0.0949 µM, first compound 0.003 µM
[33] = second compound 0.0949 µM, first compound 0.00949 µM
[34] = second compound 0.0949 µM, first compound 0.03 µM
[35] = second compound 0.0949 µM, first compound 0.0949 µM
[36] = second compound 0.0949 µM, first compound 0.3 µM
[37] = second compound 0.3 µM, first compound 0.000949 µM
[38] = second compound 0.3 µM, first compound 0.003 µM
[39] = second compound 0.3 µM, first compound 0.00949 µM
[40] = second compound 0.3 µM, first compound 0.03 µM
[41] = second compound 0.3 µM, first compound 0.0949 µM
[42] = second compound 0.3 µM, first compound 0.3 µM
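Also: spheroids exposed to agents for one week before readout.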
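For viability, T/C in this document: percent viability relative to DMSO vehicle control wells as 100%.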

Structure (SMILES): CC1(C)CCC(Nc2ncc(C(F)(F)F)c(-c3c[nH]c4c(P(C)(C)=O)c(C#N)ccc34)n2)CN1 (stereo not given)
viability, T/C (compound 0.03 µM): 15.1% [middle of 4 runs]
viability, T/C (compound 0.0949 µM): 10.5% [middle of 4 runs]
viability, T/C (compound 0.3 µM): 8.72% [middle of 4 runs]

Structure (SMILES): CC(C)NCC(C(=O)N1CCN(c2ncnc3c2C(C)CC3O)CC1)c1ccc(Cl)cc1 (stereo not given)
viability, T/C (compound 0.0316 µM): 105% [middle of 4 runs]
viability, T/C (compound 0.316 µM): 115% [middle of 4 runs]
viability, T/C (compound 1 µM): 105% [middle of 4 runs]
viability, T/C (compound 3.16 µM): 64% [middle of 4 runs]
viability, T/C (compound 10 µM): 34.2% [middle of 4 runs]
IC50 (curve of compound): 5.43 µM [middle of 4 runs]

Structure (SMILES): C=CC(=O)Nc1cc(Nc2nccc(-c3cn(C)c4ccccc34)n2)c(OC)cc1N(C)CCN(C)C + CCn1c(-c2cc(N3CCN(C)CC3)cnc2C(C)OC)c2c3cc(ccc31)-c1csc(n1)CC(NC(=O)C1CC1C)C(=O)N1CCCC(N1)C(=O)OCC(C)(C)C2
IC50 [1]: > 1000 nM
IC50 [2]: > 1000 nM
IC50 [3]: > 1000 nM
IC50 [4]: > 1000 nM
IC50 [5]: > 1000 nM
IC50 [6]: > 1000 nM
viability, T/C (second compound 0.000949 µM, first compound 0.00316 µM): 88%
viability, T/C (second compound 0.000949 µM, first compound 0.01 µM): 88.8%
viability, T/C (second compound 0.000949 µM, first compound 0.0316 µM): 116%
viability, T/C (second compound 0.000949 µM, first compound 0.1 µM): 69.1%
viability, T/C (second compound 0.000949 µM, first compound 0.316 µM): 83.5%
viability, T/C (second compound 0.000949 µM, first compound 1 µM): 75.5%
viability, T/C (second compound 0.003 µM, first compound 0.00316 µM): 90.7%
viability, T/C (second compound 0.003 µM, first compound 0.01 µM): 92.2%
viability, T/C (second compound 0.003 µM, first compound 0.0316 µM): 80.2%
viability, T/C (second compound 0.003 µM, first compound 0.1 µM): 82.7%
viability, T/C (second compound 0.003 µM, first compound 0.316 µM): 110%
viability, T/C (second compound 0.003 µM, first compound 1 µM): 79.3%
viability, T/C (second compound 0.00949 µM, first compound 0.00316 µM): 111%
viability, T/C (second compound 0.00949 µM, first compound 0.01 µM): 87.6%
viability, T/C (second compound 0.00949 µM, first compound 0.0316 µM): 98.8%
viability, T/C (second compound 0.00949 µM, first compound 0.1 µM): 78.7%
viability, T/C (second compound 0.00949 µM, first compound 0.316 µM): 92.9%
viability, T/C (second compound 0.00949 µM, first compound 1 µM): 94.7%
viability, T/C (second compound 0.03 µM, first compound 0.00316 µM): 74.4%
viability, T/C (second compound 0.03 µM, first compound 0.01 µM): 71.4%
viability, T/C (second compound 0.03 µM, first compound 0.0316 µM): 100%
viability, T/C (second compound 0.03 µM, first compound 0.1 µM): 88.4%
viability, T/C (second compound 0.03 µM, first compound 0.316 µM): 120%
viability, T/C (second compound 0.03 µM, first compound 1 µM): 96.8%
viability, T/C (second compound 0.0949 µM, first compound 0.00316 µM): 86%
viability, T/C (second compound 0.0949 µM, first compound 0.01 µM): 111%
viability, T/C (second compound 0.0949 µM, first compound 0.0316 µM): 98.1%
viability, T/C (second compound 0.0949 µM, first compound 0.1 µM): 114%
viability, T/C (second compound 0.0949 µM, first compound 0.316 µM): 88.2%
viability, T/C (second compound 0.0949 µM, first compound 1 µM): 101%
viability, T/C (second compound 0.3 µM, first compound 0.00316 µM): 102%
viability, T/C (second compound 0.3 µM, first compound 0.01 µM): 89.6%
viability, T/C (second compound 0.3 µM, first compound 0.0316 µM): 103%
viability, T/C (second compound 0.3 µM, first compound 0.1 µM): 143%
viability, T/C (second compound 0.3 µM, first compound 0.316 µM): 123%
viability, T/C (second compound 0.3 µM, first compound 1 µM): 103%

Further lines, with some results ahead:

IC50 [1]: 1.67 nM
IC50 [2]: 1.57 nM
IC50 [3]: 1.39 nM
IC50 [4]: 1.14 nM
IC50 [5]: 1.15 nM
IC50 [6]: 1.21 nM
Structure (SMILES): CCc1c2c(nc3ccc(O)cc13)-c1cc3c(c(=O)n1C2)COC(=O)[C@]3(O)CC + CCn1c(-c2cc(N3CCN(C)CC3)cnc2C(C)OC)c2c3cc(ccc31)-c1csc(n1)CC(NC(=O)C1CC1C)C(=O)N1CCCC(N1)C(=O)OCC(C)(C)C2
viability, T/C [7]: 95.5%
viability, T/C [8]: 2.7%
viability, T/C [9]: 0.64%
viability, T/C [10]: 0.62%
viability, T/C [11]: 0.49%
viability, T/C [12]: 0.57%
viability, T/C [13]: 86.2%
viability, T/C [14]: 3.2%
viability, T/C [15]: 0.55%
viability, T/C [16]: 0.6%
viability, T/C [17]: 1.32%
viability, T/C [18]: 0.57%
viability, T/C [19]: 71.3%
viability, T/C [20]: 6.94%
viability, T/C [21]: 1.03%
viability, T/C [22]: 0.54%
viability, T/C [23]: 0.73%
viability, T/C [24]: 0.75%
viability, T/C [25]: 58.1%
viability, T/C [26]: 7.49%
viability, T/C [27]: 0.82%
viability, T/C [28]: 1.66%
viability, T/C [29]: 0.53%
viability, T/C [30]: 0.43%
viability, T/C [31]: 58.9%
viability, T/C [32]: 4.98%
viability, T/C [33]: 0.8%
viability, T/C [34]: 0.54%
viability, T/C [35]: 0.7%
viability, T/C [36]: 0.4%
viability, T/C [37]: 62.1%
viability, T/C [38]: 4.76%
viability, T/C [39]: 0.65%
viability, T/C [40]: 0.58%
viability, T/C [41]: 0.62%
viability, T/C [42]: 0.39%

IC50 [1]: 1.76 nM
IC50 [2]: 1.73 nM
IC50 [3]: 1.62 nM
IC50 [4]: 1.18 nM
IC50 [5]: 0.96 nM
IC50 [6]: < 0.949 nM
Structure (SMILES): CCc1c2c(nc3ccc(O)cc13)-c1cc3c(c(=O)n1C2)COC(=O)[C@]3(O)CC + CCn1c(-c2cccnc2C(C)OC)c2c3cc(ccc31)N1CCOC(CC(NC(=O)C(C(C)C)N(C)C(=O)C3(F)CCN(C(=O)C#CC(C)(C)N(C)C)CC3)C(=O)N3CCCC(N3)C(=O)OCC(C)(C)C2)C1
viability, T/C [7]: 103%
viability, T/C [8]: 4.09%
viability, T/C [9]: 0.96%
viability, T/C [10]: 0.65%
viability, T/C [11]: 0.49%
viability, T/C [12]: 0.69%
viability, T/C [13]: 99.8%
viability, T/C [14]: 4.15%
viability, T/C [15]: 0.79%
viability, T/C [16]: 0.63%
viability, T/C [17]: 0.64%
viability, T/C [18]: 0.67%
viability, T/C [19]: 89.8%
viability, T/C [20]: 4.69%
viability, T/C [21]: 1.12%
viability, T/C [22]: 0.52%
viability, T/C [23]: 0.51%
viability, T/C [24]: 0.56%
viability, T/C [25]: 60.8%
viability, T/C [26]: 3.34%
viability, T/C [27]: 1.17%
viability, T/C [28]: 0.76%
viability, T/C [29]: 0.58%
viability, T/C [30]: 0.79%
viability, T/C [31]: 50.5%
viability, T/C [32]: 2.92%
viability, T/C [33]: 0.55%
viability, T/C [34]: 0.56%
viability, T/C [35]: 0.56%
viability, T/C [36]: 0.53%
viability, T/C [37]: 18.4%
viability, T/C [38]: 1.07%
viability, T/C [39]: 0.76%
viability, T/C [40]: 0.59%
viability, T/C [41]: 0.68%
viability, T/C [42]: 0.5%
